Data on one substance can be found in US12281178B2, “Tuning of pore-forming peptides for increasing pore size, membrane affinity, stability, and antimicrobial activity” (ADOLPHE MERKLE INSTITUTE, UNIVERSITY OF FRIBOURG, priority 2018, dated 2025).

Entries after “also recorded” stand apart in the source; their conditions may differ.

Experiment [1] in a line: Planar lipid bilayer single channel recordings of CtxA and flexible-template CtxA-DNA assemblies. The class given is biochemical. How it is done:
The lipid composition for the bilayers consisted of POPC, DOPE and POPS with a 7:3:1 (w/w) ratio (PC/PE/PS) or for the origami structures in diphytanoyl phosphatidylcholine (DiPhyPC). We dissolved the resulting lipid mixture in pentane (total lipid concentration: 10 mg/mL). The buffered electrolyte solution consisted of 1M NaCl, 10 mM HEPES, pH 7.4 or 3M CsCl, 10 mM HEPES, pH 7.4 in 30% glycerol.
We designed Teflon chambers with one big compartment (containing a maximum volume of 1.5 mL) and one small compartment (containing a maximum volume of 200 μL). We pretreated Teflon films (Eastern Scientific LLC, Rockville, MD) with apertures of 50 μm by pipetting 1 μL of pre-treatment solution—hexadecane in hexane 2.5% (v/v)—onto both sides of the aperture of the Teflon film. We then mounted the Teflon film in a Teflon chamber using high-vacuum grease (Dow Corning Corporation), separating the two compartments of the Teflon chamber. The only connection between the compartments was the aperture in the Teflon film over which we formed virtually solvent-free planar lipid bilayers using the technique described by Montal and Mueller^10. Briefly, we added electrolyte solution to both compartments (1.2 mL in the bigger compartment and 160 μL for the smaller one) and spread 1-2 μL of lipid solution onto the surface of the buffered electrolyte solution. After the solvent evaporated, a lipid monolayer (Langmuir film) formed at the air-water interface. […] We then thinned the membrane by lowering and raising the electrolyte solution in one compartment, until we measured a capacitance of 60±10 pF. To monitor capacitance, we applied a triangular voltage and the capacitance was either calculated by the amplifier or determined visually using the manual capacitance compensation of the amplifier. Prior to adding the peptide, we checked the stability of the bilayer (absence of leak currents, expected noise level) by applying transmembrane voltages of up to 200 mV for 5 min at both polarities. We used one of two different amplifiers, an EPC7 (HEKA Instruments Inc., Holliston, MA, USA) or a BC-535 (Warner Instruments Hamden, CT, USA)) and connected both compartments to the amplifier through two Ag/AgCl pellet electrodes (Warner Instruments Hamden, CT, USA). We placed the Teflon chambers inside Faraday cages, on BM4 vibration isolation platforms (Minus K® Technology, Inc., Inglewood, CA, USA). We carried out all experiments at room temperature (22±1° C.) and tested all setups with different model cells to confirm proper functionality of the amplifiers and function generators. We sampled currents at 50 kHz and low-pass 10 kHz. We analysed data using OriginLab (OriginLab Corporation, Northampton, MA, USA) and pClamp (Molecular Devices, Sunnyvale, CA, USA) software.
We performed the experiments with the peptide-DNA hybrid in two different ways: (i) we added all components sequentially—ssDNA-CtxA first, then the template strands, one after the other—or (ii) we mixed the ssDNA-CtxA with the spacer strand (with or without cholesterol) and the template strand in a DNA LoBind tube (Eppendorf Tubes, Hamburg, Germany) and let them react overnight at room temperature (pre-incubation experiments). We also performed the pre-incubation experiments with and without HPLC-SEC purification. In the case of unpurified assemblies, we added the DNA-modified peptides and the spacer strand stoichiometrically and then added the n-mer template (with n equal to 4, 6 or 8) at a ratio of 1 mole for n moles of DNA-modified peptide. When purifying the assemblies, we added the peptide-DNA monomers in excess compared to the template strand (at least 5 n moles of peptide for 1 mol of n-mer template) and removed the excess monomers using HPLC-SEC purification (Agilent SEC 3 column, 300 mm, […], 4.6 mm internal diameter). We then stored the collected assemblies at +4° C. for later use and add the spacer strand in excess prior to the experiment. […]

The test system of the next experiment is A549 cells. In words: Cytotoxic activity: change in confluence of A549 cells over time (IncuCyte). The class given is cell-based. The protocol:
We grew lung epithelial A549 cells in RPMI 1640 medium containing 25 mM HEPES, 1% L-glutamine, 10% fetal bovine serum and added 1% penicillin-streptomycin for prevention of bacterial contamination of cell cultures. We seeded the cells in 96-well plates (TPP, Trasadingen, Switzerland) with 10′000 cells per well, in a total volume of 50 uL per well. We placed the plates in the IncuCyte Zoom imaging system (Essen Bioscience, Ann Arbor, MI, USA) placed inside of an incubator set to 37° C. and 5% CO2 and monitored the growth of the cell by monitoring the change in confluence over time. We seeded the cells and left them to adhere and replicate for 20 h before adding the templated CtxA-DNA assemblies or native CtxA as control. We then measured the cell confluence every 2 h. To estimate the effect of the different peptide assemblies on the change in confluence over time, we fitted the observed confluence levels after peptide addition linearly.

Setting [2] is: applied potential difference of +180 mV.

Turning to “Ceratotoxin A (SIGSALKKALPVAKKIGKIALPIAKAALPVAAGLVG) [Native CtxA]”, in experiment [1], the “Minimum concentration to display significant / frequent pore formation” value is 10 to 20 nM and the Pore lifetime result is reported as “hundreds of milliseconds; also recorded: less than one second”. In experiment [1] (setting [2]), the “Conductance, open state O1 (3-mer)” value is 50 ± 25 pS; the “Conductance, open state O2 (4-mer)” value turned out to be 510 ± 30 pS; the “Conductance, open state O3 (5-mer)” value stood at 1645 ± 200 pS; the “Conductance, open state O4 (6-mer)” value was found to be 3125 ± 305 pS. Also, in experiment [1] (setting [2]), the “Conductance, open state O5 (7-mer)” value is 4630 ± — pS and the “Conductance, open state O6 (8-mer)” value was 6600 ± — pS. Moreover, in experiment [1] (total peptide concentration of 5 nM, +180 mV), the Pore-forming activity entry is “little to no pore formation”. In the experiment on A549 cells, the “Concentration necessary to reduce cell viability” value lay in the range of 50 to 100 µM and the “Total CtxA concentration sufficient to completely stop replication of the cells” value came out at 100 µM.
